Experiments:
[1] = system: HCT116 p53^−/− cancer cells; experiment: Autophagy (CYTO-ID staining, confocal); assay type: cell-based, human; details: 3.125 μM, 40 h
Method: FIG. 17. The effects of [L2Cu3]^6+, [L2Zn3]^6+ and [L2Mn3]^6+ on cellular vacuole formation and autophagy in the HCT116 p53^−/− cancer cells. Representative confocal images are shown of HCT116 p53^−/− cancer cells following 40 h treatment with vehicle control or 3.125 μM [L2Cu3]^6+, [L2Zn3]^6+, or [L2Mn3]^6+.
Autophagy studies: The effects of 3.125 μM [L2Cu3]^6+, [L2Zn3]^6+ and [L2Mn3]^6+ treatments (40 h) on the induction of cellular vacuoles and autophagy in the HCT116 p53^−/−, HCT116 p53^+/+ and ARPE19 cells are presented in FIGS. 17-19 with representative cell images shown. […] In the ARPE19 cells, levels of autophagy were low with all treatments and similar to basal levels in control-treated cells (FIG. 19).

[2] = Dephosphorylation of phosphorylated amino acid (31P NMR); details: 37° C.
Method: (§1) FIG. 6. Phosphatase activity of [L2Zn3]^6+. ^31P NMR spectra using different substrates including PhOPO3 (spectra A to D), serine phosphate (spectra E to H), threonine phosphate (spectra I to L) and tyrosine phosphate (spectra M to P). Specific details for each ^31P NMR spectra are as follows: Spectra A, E, I and M represent substrate alone (44 hrs incubated @ 37° C.); Spectra B, F, J and N represents [L2Zn3]^6+ plus substrate (t=0 min); Spectra C, G, K and O represents [L2Zn3]^6+ plus substrate incubated @ 37° C. for 19 hours; Spectra D, H, L and […] represents [L2Zn3]^6+ plus substrate incubated @ 37° C. for 44 hours. The ^31P NMR of [L2Zn3(PO4)]^3+ gives a signal at 8.6 ppm.
(§2) Given the importance of protein phosphorylation in inter- and intra-cellular signalling and to cell function, and its common dysregulation in cancers,^30, 31 it was next analysed whether the Zn^2+ complex could dephosphorylate the phosphorylated amino acids serine, threonine and tyrosine. […] Dephosphorylation of the amino acid threonine-OPO3^2− by the Zn^2+ complex was much slower however and after 48 hrs threonine-OPO3^2− was still the major species (FIG. 6, spectra I-L). Differences in reactivity towards different substrates can be attributed to both steric and electronic effects. […]

[3] = as above; details: 37° C.; remark: listed apart in the source
Method: as §1, §2

[4] = Phosphatase activity: hydrolysis of 4-nitrophenyl phosphate; details: following mixing
Text: Only [L2Zn3(PO4)]^3+ was observed, coupled with a rapid yellowing of the solution due to the formation of 4-nitrophenolate.
The rate of substrate hydrolysis is also dependent upon the metal used in the self-assembly process.

ARPE19 non-cancer cells = experiment: Cellular ATP levels; assay type: cell-based, human; details: 100 μM, 20 h
Method: FIG. 20. The effects of [L2Cu3]^6+, [L2Zn3]^6+ and [L2Mn3]^6+ on cellular ATP levels in the ARPE19 non-cancer and HCT116 p53^+/+ cancer cells. The effects of 20 h treatment with the indicated concentrations of [L2Cu3]^6+, [L2Zn3]^6+, or [L2Mn3]^6+ on total cellular levels of ATP compared to levels in vehicle control-treated ARPE19 or HCT116^+/+ cells. n=3 biological repeats, students t-test (p values).
Cellular ATP studies: The effects of 20 h treatment with a range of different concentrations of [L2Cu3]^6+, [L2Zn3]^6+ and [L2Mn3]^6+ on total cellular ATP levels in HCT116 p53^+/+ and ARPE19 cells are presented in FIG. 20. Differential effects are observed depending on the metal in the complex, with [L2Mn3]^6+ having the most profound effects on both the HCT116 p53^+/+ cancer and ARPE19 non-cancer cells. 6.25 μM [L2Mn3]^6+ treatment for 20 h reduced ATP levels in the HCT116 p53^+/+ cancer cells to <50% with ATP levels declining less in the ARPE19 non-cancer cells but reaching ˜40% with 100 μM [L2Mn3]^6+ treatment. […] Effects of [L2Cu3]^6+ on ATP levels was much less, with ATP levels in the HCT116 cells reduced to <50% only at the highest concentration of 100 μM.

Compound | induction of autophagy [1] | time to completion of dephosphorylation [2] [h] | rate of dephosphorylation ([2]; after 48 hrs threonine-OPO3^2− still the major species) | time to completion of dephosphorylation [3] [h] | hydrolysis of 4-nitrophenyl phosphate by 31P NMR [4] | ATP levels compared to vehicle control (ARPE19 non-cancer cells) [%]
[Cu+2].[Cu+2].[Cu+2].c1ccc(-c2csc(NCCN(CCNc3nc(-c4ccccn4)cs3)CCNc3nc(-c4ccccn4)cs3)n2)nc1.c1ccc(-c2csc(NCCN(CCNc3nc(-c4ccccn4)cs3)CCNc3nc(-c4ccccn4)cs3)n2)nc1 [[L2Cu3]^6+] | no or little autophagy |  |  |  |  | 
[Zn+2].[Zn+2].[Zn+2].c1ccc(-c2csc(NCCN(CCNc3nc(-c4ccccn4)cs3)CCNc3nc(-c4ccccn4)cs3)n2)nc1.c1ccc(-c2csc(NCCN(CCNc3nc(-c4ccccn4)cs3)CCNc3nc(-c4ccccn4)cs3)n2)nc1 [[L2Zn3]^6+] |  | 48 | much slower | 48 | almost immediate hydrolysis | > 70
